Patent US5041653A, “Substituted benzamide radiosensitizers” (SRI International, priority 1990, dated 1991)

Legend:
[1] = tested on: EMT6 tumors; assay: In vivo assay for radiosensitization activity (EMT6 tumors in female BALB/c mice, survival of dissected and cultured tumor cells, compared with MIS); design: key to Radiosensitization (score 0 to 4 vs MIS): 0: No radiosensitization; 1: Minimal radiosensitization (some radiosensitization relative to controls but lowest survival>3×lowest survival with MIS); 2: Moderate radiosensitization (not good as MIS, but lowest surviving fraction<3×lowest surviving fraction with MIS); 3: Good radiosensitization (equal to MIS); 4: Excellent radiosensitization (superior to MIS); settings: for Radiosensitization (score 0 to 4 vs MIS): EMT6 tumors, BALB/c mice, 5 mmole/kg or 2/3 of LD50 ip, 2,000 rad at 5 min to 2 hr after injection; for sensitizer enhancement ratio: at a 1-2 mM concentration, comparable to that for MIS
Description: The compounds of the invention are tested in vivo for radiosensitization activity by the assay of Brown, J. M., Radiation Res (1975) 64:633-47, incorporated herein by reference. For this assay EMT6 tumors in female BALB/c mice weighing 20-25 g are used. These mice are bred under specific pathogen-free conditions and are 3-4 months old at the beginning of each experiment. The EMT6 tumor is grown intradermally in the flank from an inoculation of 2×10^5 tumor cells taken from the 2nd-8th in vitro passage of the tumor cells since removal from the previous in vivo tumor. Two tumors per mouse are implanted, and are used as subject tumors when they reach a volume of approximately […]. At this point the tumors contain approximately 20% hypoxic cells.
Test compounds are compared against MIS in this assay. The test compound is tested at a fixed injected dose of either 5 mmole/kg or 2/3 of the LD50 (whichever is lower), MIS is injected into controls at the same dose. Additional suitable controls of test compound-injected but non-irradiated and saline-injected and irradiated mice are also included. A fixed radiation dose of 2,000 rad is applied at variable intervals of 5 min to 2 hr between injection and irradiation. Typically, irradiation is applied at 5, 10, 15, 20, 30, 45, 60, 90, and 120 min following intraperitoneal administration of both drugs. By using these intervals, the results give an indication of both the optimum time to irradiate and of how the test compound sensitizes in relationship to MIS.
Irradiation of the EMT6 tumors is done by irradiating nonanesthetized tumor-bearing mice in a Plexiglas box. Irradiation conditions are 250 kVp X-rays, 15 mA, FSC 33 cm, added filtration of 0.35 mm Cu, half value layer 1.3 mm Cu, and a dose rate of 317 rad/min.
Radiosensitization activity is judged by survival rate of dissected and cultured tumor cells as follows: The tumor-bearing mice are killed immediately after irradiation, and tumors dissected from the skin, cut into several pieces, and made into a fine brei by high-speed chopping with a razor blade attached to a jigsaw. The brei is added to 30 ml of Hank's buffered salt solution (HBSS) containing 0.02% DNase, 0.05% promase, and 0.02% collagenase. The suspension is stirred for 30 min at 37° C., filtered, and centrifuged at 1,600 rmp for 10 min at 4° C. The cell pellet is resuspended in complete Waymouth's medium plus 121/2% horse serum plus 2-12% fetal calf serum (FCS) and an aliquot mixed with trypan blue and counted with the use of a hemacytometer. Suitable dilutions of this […] plated into 60- or 100-mm polystyrene petri dishes (Lux Scientific Corp) in 5 or 15 ml of medium. After incubation for 13 days, the colonies are fixed and stained, and those containing 50 cells or more are counted. The dilution yielding an average count of 25-100 colonies in a 60 mm dish is used in calculation of results.
The test compound is scored on the scale of 0 to 4 based on how it compares with MIS. The scoring system is:
1: Minimal radiosensitization (some radiosensitization relative to controls but lowest survival>3×lowest survival with MIS)
2: Moderate radiosensitization (not good as MIS, but lowest surviving fraction<3×lowest surviving fraction with MIS)
3: Good radiosensitization (equal to MIS)

[2] = Cytotoxicity test (% cell survival, hypoxic HA-1 cells); format: cell-based, Chinese hamster; settings: chinese hamster, ha-1 cells, hypoxic, 10 mM test compound, 1 hr at 22° C., hypoxia (N2 containing 5% CO2)
Description: (§1) Cytotoxicity tests were also carried out on each of the compounds. The test procedure was as follows: Log-phase Chinese hamster ovary HA-1 cells were trypsinized (0.5% trypsin in Hank's buffered salt solution (HBSS)) and plated in 60 mm Permanox petri dishes in concentrations necessary to yield approximately 30 colonies after experimental treatment. The cells were allowed to attach overnight. Then the medium was removed from each dish and replaced with 2 ml of medium containing varying concentrations of the test compound. The petri dishes were then placed in nylon chamber fitted with gassing ports and, to achieve hypx=oxia, were gassed at room temperature with humidified N2 containing 5% CO2 for 1 hr at a rate of 1 l/min. The cells are then exposed to 10 mM of the test compound for 1 hr at 22° C. The % cell survival is read after such treatment.

[3] = tested on: Chinese hamster ovary HA-1 cells; assay: as above; format: cell-based; settings: 10 mM test compound, 1 hr at 22° C., hypoxia (N2 containing 5% CO2), 60 min, 10000 µM
Description: as §1

| Structure (SMILES) | Radiosensitization (score 0 to 4 vs MIS) [1] | sensitizer enhancement ratio [1] | viability at 1 h, 10000 µM [2] [%] | Cytotoxicity % Cell Survival [3] [%] |
| --- | --- | --- | --- | --- |
| NC(=O)c1cccc(OCCO)c1 [3-(2-hydroxyethoxy)benzamide] | 3 | 1.6 | 89 |  |
| NC(=O)c1cccc(O)c1 [3-hydroxybenzamide] | 3 | 1.6 | 90 | 77 |
| CC(=O)OCCOc1cccc(C(N)=O)c1 [3-(2-acetoylethoxy)benzamide, 3-(2-Acetoxyethoxy)benzamide] |  | 1.6 |  |  |
